Source: PubChem BioAssay AID328 (DTP/NCI, 2004)
“And” between values parts separate entries of the source, which are not always exact repeats. Equal values may be shown once. Inconclusive results and toxic doses are left out.

Tested on: BDF1 mice, P388 leukemia ip, median survival T/C
Assay: NCI In Vivo Anticancer Drug Screen. Data for tumor model P388 Leukemia (intraperitoneal) in B6D2F1 (BDF1) mice
Conditions: endpoint: median survival time, higher = longer survival
Summary of the method: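 Transplantable tumour in mice; compound vs vehicle dosing; survival scored; ratio of treated to control reported.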

[1] = dose: 50.0 mg/kg/injection, schedule: Q01DX009 (ip), vehicle: saline with Tween-80
[2] = dose: 100.0 mg/kg/injection, schedule: Q01DX009 (ip), vehicle: saline with Tween-80
[3] = dose: 200.0 mg/kg/injection, schedule: Q01DX009 (ip), vehicle: saline with Tween-80
[4] = dose: 100.0 mg/kg/injection, schedule: Q01DX009 (ip), vehicle: saline
[5] = dose: 200.0 mg/kg/injection, schedule: Q01DX009 (ip), vehicle: saline
[6] = dose: 400.0 mg/kg/injection, schedule: Q01DX009 (ip), vehicle: saline
[7] = dose: 100.0 mg/kg/injection, schedule: Q04DX003 (ip), vehicle: Klucel (hydroxypropylcellulose) (HPC)
[8] = dose: 200.0 mg/kg/injection, schedule: Q04DX003 (ip), vehicle: Klucel (hydroxypropylcellulose) (HPC)
[9] = dose: 100.0 mg/kg/injection, schedule: Q01DX009 (ip), vehicle: water
[10] = dose: 200.0 mg/kg/injection, schedule: Q01DX009 (ip), vehicle: water
[11] = dose: 400.0 mg/kg/injection, schedule: Q01DX009 (ip), vehicle: water
[12] = dose: 100.0 mg/kg/injection, schedule: Q04DX003 (ip), vehicle: saline with Tween-80
[13] = dose: 200.0 mg/kg/injection, schedule: Q04DX003 (ip), vehicle: saline with Tween-80
[14] = dose: 400.0 mg/kg/injection, schedule: Q04DX003 (ip), vehicle: saline with Tween-80
[15] = dose: 25.0 mg/kg/injection, schedule: Q01DX009 (ip), vehicle: saline with Tween-80

With `CC(C(Cl)c1ccccc1)S(=O)c1ccccc1` (stereo not drawn) the T/C [1] was 108 % of control, the T/C [2] was 103 % of control and the T/C [3] was 105 % of control.
With `CC(C)CCCC(C)C1CCC2C3C(=O)C=C4CC(O)CCC4(C)C3CCC12C` (stereo not drawn) the T/C (dose: 100.0 mg/kg/injection, schedule: Q04DX003 (sc), vehicle: steriod suspending solution) was 109 % of control, the T/C (dose: 200.0 mg/kg/injection, schedule: Q04DX003 (sc), vehicle: steriod suspending solution) was 104 % of control and the T/C (dose: 400.0 mg/kg/injection, schedule: Q04DX003 (sc), vehicle: steriod suspending solution) was 109 % of control.
`CC(C)(CCC(C)(C)NCCC#N)NCCC#N` was tested, and the T/C (dose: 50.0 mg/kg/injection, schedule: Q01DX009 (ip), vehicle: saline) was 97 % of control and 104 % of control, the T/C [4] was 101 % of control and the T/C (dose: 100.0 mg/kg/injection, schedule: Q04DX003 (ip), vehicle: saline) was 98 % of control. For the same molecule, the T/C [5] was 109 % of control and 119 % of control, the T/C (dose: 200.0 mg/kg/injection, schedule: Q04DX003 (ip), vehicle: saline) was 109 % of control and the T/C [6] was 107 % of control. For the same molecule, the T/C (dose: 400.0 mg/kg/injection, schedule: Q04DX003 (ip), vehicle: saline) was 114 % of control.
In the case of `O=C1CCC(=O)N1C1c2ccccc2Oc2ccccc21`, the T/C (dose: 100.0 mg/kg/injection, schedule: Q01DX001 (ip), vehicle: other) is reported as 90 % of control, the T/C (dose: 200.0 mg/kg/injection, schedule: Q01DX001 (ip), vehicle: other) is reported as 90 % of control and the T/C (dose: 400.0 mg/kg/injection, schedule: Q01DX001 (ip), vehicle: other) is reported as 113 % of control.
For `c1ccc2sc(SNC3CCCCC3)nc2c1`, the T/C (dose: 200.0 mg/kg/injection, schedule: Q04DX002 (ip), vehicle: saline) was 103 % of control and the T/C (dose: 400.0 mg/kg/injection, schedule: Q04DX002 (ip), vehicle: saline) was 122 % of control.
With `O=C1/C(=C/c2ccccc2)Cc2cccc(O)c21` the T/C (dose: 37.5 mg/kg/injection, schedule: Q01DX001 (ip), vehicle: saline with Tween-80) was 100 % of control, the T/C (dose: 75.0 mg/kg/injection, schedule: Q01DX001 (ip), vehicle: saline with Tween-80) was 100 % of control and the T/C (dose: 150.0 mg/kg/injection, schedule: Q01DX001 (ip), vehicle: saline with Tween-80) was 100 % of control.
For `CC(=O)/C=N/Nc1ccccc1`, the T/C (dose: 50.0 mg/kg/injection, schedule: Q04DX003 (ip), vehicle: Klucel (hydroxypropylcellulose) (HPC)) was 109 % of control, the T/C (dose: 66.0 mg/kg/injection, schedule: Q04DX003 (ip), vehicle: Klucel (hydroxypropylcellulose) (HPC)) was 110 % of control and the T/C [7] was 120 % of control. For the same molecule, the T/C (dose: 150.0 mg/kg/injection, schedule: Q04DX003 (ip), vehicle: Klucel (hydroxypropylcellulose) (HPC)) was 120 % of control and the T/C [8] was 95 % of control.
In the case of `NC(=O)CC(N)C(=O)O` (stereo not drawn), the T/C [5] is reported as 100 % of control, the T/C (dose: 200.0 mg/kg/injection, schedule: Q01DX010 (ip), vehicle: other) is reported as 110 % of control and the T/C [6] is reported as 100 % of control. The T/C (dose: 400.0 mg/kg/injection, schedule: Q01DX010 (ip), vehicle: other) was 120 % of control, the T/C (dose: 400.0 mg/kg/injection, schedule: Q01DX010 (ip), vehicle: saline with Tween-80) was 86 % of control and the T/C (dose: 800.0 mg/kg/injection, schedule: Q01DX009 (ip), vehicle: saline) was 110 % of control. For the same molecule, the T/C (dose: 800.0 mg/kg/injection, schedule: Q01DX010 (ip), vehicle: other) was 100 % of control, the T/C (dose: 1600.0 mg/kg/injection, schedule: Q01DX009 (ip), vehicle: saline) was 115 % of control and the T/C (dose: 1600.0 mg/kg/injection, schedule: Q01DX010 (ip), vehicle: other) was 115 % of control. The T/C (dose: 1600.0 mg/kg/injection, schedule: Q01DX010 (ip), vehicle: saline with Tween-80) was 150 % of control.
In the case of `CCOC(=O)C(N=C=S)C(C)CC` (stereo not drawn), the T/C (dose: 100.0 mg/kg/injection, schedule: Q01DX001 (ip), vehicle: saline with Tween-80) is reported as 115 % of control, the T/C (dose: 200.0 mg/kg/injection, schedule: Q01DX001 (ip), vehicle: saline with Tween-80) is reported as 107 % of control and the T/C (dose: 400.0 mg/kg/injection, schedule: Q01DX001 (ip), vehicle: saline with Tween-80) is reported as 118 % of control.
For `O=C(NCCO)c1cc2ccccc2cc1O`, the T/C (dose: 100.0 mg/kg/injection, schedule: Q01DX009 (ip), vehicle: Klucel (hydroxypropylcellulose) (HPC)) was 90 % of control, the T/C [7] was 104 % of control and the T/C (dose: 200.0 mg/kg/injection, schedule: Q01DX009 (ip), vehicle: Klucel (hydroxypropylcellulose) (HPC)) was 100 % of control. The T/C [8] was 100 % of control, the T/C (dose: 400.0 mg/kg/injection, schedule: Q01DX009 (ip), vehicle: Klucel (hydroxypropylcellulose) (HPC)) was 100 % of control and the T/C (dose: 400.0 mg/kg/injection, schedule: Q04DX003 (ip), vehicle: Klucel (hydroxypropylcellulose) (HPC)) was 100 % of control.
In the case of `CCOc1ccn(CC(=O)N2CCOCC2)c(=O)n1`, the T/C [9] is reported as 103 % of control, the T/C [10] is reported as 105 % of control and the T/C [11] is reported as 97 % of control.
With `C/C=C/CCCCCCCC(=O)OCCCC` the T/C [2] was 109 % of control, the T/C [12] was 110 % of control and the T/C [3] was 95 % of control. The T/C [13] was 105 % of control, the T/C (dose: 400.0 mg/kg/injection, schedule: Q01DX009 (ip), vehicle: saline with Tween-80) was 113 % of control and the T/C [14] was 120 % of control.
For `Cc1cc(NC(=O)c2ccc(C(=O)Nc3ccc(C4=NCCN4)c(C)c3)cc2)ccc1C1=NCCN1`, the T/C [2] was 122 % of control and the T/C [3] was 186 % of control.
With `C=CCCCCn1c2ccccc2c2c(C)c3cnccc3c(C)c21` the T/C [12] was 109 % of control, the T/C [13] was 100 % of control and the T/C [14] was 118 % of control.
With `CCCCCNC(=O)Nc1cccc(Cl)c1C` the T/C (dose: 6.25 mg/kg/injection, schedule: Q01DX009 (ip), vehicle: saline with Tween-80) was 116 % of control, the T/C (dose: 12.5 mg/kg/injection, schedule: Q01DX009 (ip), vehicle: saline with Tween-80) was 109 % of control and the T/C [15] was 108 % of control. For the same molecule, the T/C [1] was 99 % of control.
In the case of `CSc1cccc(NC(=O)OCCOc2ccc(-c3ccccc3)cc2)c1`, the T/C (dose: 12.5 mg/kg/injection, schedule: Q01DX009 (ip), vehicle: Klucel (hydroxypropylcellulose) (HPC)) is reported as 109 % of control, the T/C (dose: 25.0 mg/kg/injection, schedule: Q01DX009 (ip), vehicle: Klucel (hydroxypropylcellulose) (HPC)) is reported as 105 % of control and the T/C (dose: 50.0 mg/kg/injection, schedule: Q01DX009 (ip), vehicle: Klucel (hydroxypropylcellulose) (HPC)) is reported as 111 % of control.
For `COC1CCCCC1Br` (stereo not drawn), the T/C [4] was 113 % of control, the T/C [5] was 109 % of control and the T/C [6] was 104 % of control.
In the case of `O=C(Cc1ccccc1)Cc1ccccc1`, the T/C (dose: 25.0 mg/kg/injection, schedule: Q01DX009 (ip), vehicle: water) is reported as 99 % of control, the T/C (dose: 50.0 mg/kg/injection, schedule: Q01DX009 (ip), vehicle: water) is reported as 99 % of control and the T/C [9] is reported as 90 % of control. The T/C [10] was 97 % of control, the T/C (dose: 200.0 mg/kg/injection, schedule: Q04DX003 (ip), vehicle: water) was 97 % of control and 100 % of control and the T/C (dose: 300.0 mg/kg/injection, schedule: Q04DX003 (ip), vehicle: water) was 89 % of control and 97 % of control. For the same molecule, the T/C [11] was 109 % of control, the T/C (dose: 400.0 mg/kg/injection, schedule: Q04DX003 (ip), vehicle: water) was 93 % of control and 100 % of control and the T/C (dose: 500.0 mg/kg/injection, schedule: Q04DX003 (ip), vehicle: water) was 108 % of control. For the same molecule, the T/C (dose: 600.0 mg/kg/injection, schedule: Q04DX003 (ip), vehicle: water) was 98 % of control.
In the case of `NC(N)=Nc1ccc(F)cc1`, the T/C [1] is reported as 110 % of control, the T/C [2] is reported as 95 % of control and the T/C [3] is reported as 90 % of control.
`COC(=O)c1ccc(Cn2ccc(=O)n(Cc3ccc(C(=O)OC)cc3)c2=O)cc1` was tested, and the T/C [12] was 100 % of control, the T/C [13] was 100 % of control and the T/C [14] was 100 % of control.
With `CCCCS(=O)/C=C\C(=O)NCCC` (stereo not drawn) the T/C [15] was 100 % of control, the T/C [1] was 99 % of control and the T/C [2] was 100 % of control.
With `CC(=O)OC1(C)CC(C)(C)N=N1` (stereo not drawn) the T/C (dose: 25.0 mg/kg/injection, schedule: Q01DX005 (ip), vehicle: water) was 107 % of control, the T/C (dose: 50.0 mg/kg/injection, schedule: Q01DX005 (ip), vehicle: water) was 105 % of control and the T/C (dose: 100.0 mg/kg/injection, schedule: Q01DX005 (ip), vehicle: water) was 105 % of control. The T/C (dose: 200.0 mg/kg/injection, schedule: Q01DX005 (ip), vehicle: water) was 114 % of control and the T/C (dose: 400.0 mg/kg/injection, schedule: Q01DX005 (ip), vehicle: water) was 107 % of control.
